Holding throughout (format): physicochemical
Data set [1] can be described thus: Film method: loading capacity of active ingredient in polymer films, microscopic assessment after storage. The following applies: for Loading capacity, active ingredients in %, Films with Eudragit ® EPO / Loading capacity, active ingredients in %, Films with Kollicoat ® Smartseal freeze-dried: molecularly disperse dissolved active ingredient; for Loading capacity, active ingredients in %, Films with Eudragit ® EPO / Loading capacity, active ingredients in %, Films with Kollicoat ® Smartseal + 6 mol partially neutralized / Loading capacity, active ingredients in %, Films with Kollicoat ® Smartseal + 8 mol partially neutralized / Loading capacity, active ingredients in %, Films with Kollicoat ® Smartseal freeze-dried: no crystals in film, storage 7 days 23° C./54% relative humidity; for Loading capacity, active ingredients in %, Films with Kollicoat ® Smartseal + 6 mol partially neutralized: 6 mol % of basic groups neutralized with adipic acid; for Loading capacity, active ingredients in %, Films with Kollicoat ® Smartseal + 8 mol partially neutralized: 8 mol % of basic groups neutralized with succinic acid. The source says:
The film method is a process in which a clear solution of the polymer and of the active ingredient is molded to give a thin film which solidifies as a result of the solvent evaporating. Clear solution means that no clouding is evident upon normal inspection. This method is suitable in particular as a screening method in order to determine the loading limits of the solid dispersions in a simple manner. For the screening process, the film can be produced by pouring the solution with the corresponding concentrations of polymer and active ingredient onto glass plates and drawing it out with the help of a blade to give the film. Usually, the films are drawn to layer thicknesses of from 50 to 200 μm. The resulting films are then dried by drawing off the solvent, and solidified as a result. In one or more embodiments, the solvent is removed in vacuo, for example at 1 hPa to 100 hPa. […] Additionally, the removal of the solvent can be effected by the action of temperature.
For the screening process, the films produced are then stored under controlled climatic conditions for defined periods of time—generally 14 days.
The films can then be evaluated by microscope at 40 times magnification. Clear films are a sign of amorphous systems. Cloudy films point to relatively large crystalline fractions.
To prepare the polymer/active ingredient mixture, the substances were weighed in the respective amounts into a 50 ml penicillin bottle.
All of the mixtures were stirred for 24 h on a magnetic stirrer until the constituents had dissolved. After visually assessing the solution (clear solution), the solvent was drawn out on a glass plate using a 120 μm blade. The resulting film was dried for 0.5 h at room temperature of 22+/−2° C. in a fume cupboard and then for 0.5 h in a vacuum drying cabinet at 50° C. and […]. […] Clear films (without active ingredient crystals) indicate molecularly disperse solutions and cloudy films (with active ingredient crystals) indicate crystalline systems.

The nature of data set [2]: Spray-drying: loading capacity assessed by DSC. The following applies: active ingredient in Kollicoat ® Smartseal.
Protocol: (§1) To prepare the polymer/active ingredient mixture, the substances were weighed into an appropriate storage vessel. The corresponding amount of solvent was added and the mixture was stirred until the polymer and the active ingredient had completely dissolved. […] The solids fraction of the spraying solution was 20% by weight for all experiments. The spray-drying was carried out on a laboratory scale.
(§2) The liquid to be dried was atomized using a two-material nozzle. A heated gas (here nitrogen) flowing concurrently dries the distributed drops to give solid particles with particle diameters in the range 5-20 μm. In the entry area of the spray drier, the drying gas is supplied tangentially. The dry product particles are separated off in a cyclone.
The nature of data set [3]: Spray-drying: loading capacity assessed by XRD. The conditions noted are these: active ingredient in Kollicoat ® Smartseal.
Protocol: as §1, §2
Loading capacity of Kollicoat® Smartseal with different active ingredients in the spray-drying. Spray-drying experiments carried out on the laboratory scale: • 1. Itraconazole: Kollicoat® Smartseal with 40+50% (w/w) itraconazole • 2. Fenofibrate: Kollicoat® Smartseal with 40+50% (w/w) fenofibrate • 3.

With `COc1ccc2cc([C@H](C)C(=O)O)ccc2c1` [Naproxen], the Loading film method in data set [1] (active ingredient in Kollicoat ® Smartseal) was 50%. The “Loading capacity, active ingredients in %, Films with Eudragit ® EPO” value in data set [1] is recorded as 30%. Also, the “Loading spray-drying [DSC, %]” value in data set [2] amounted to 50%. The “Loading spray-drying [XRD, %]” value in data set [3] came to 50%.

On to `NC(=O)N1c2ccccc2C=Cc2ccccc21` [Carbamazepine], for which, in data set [1], the “Loading capacity, active ingredients in %, Films with Kollicoat ® Smartseal + 6 mol partially neutralized” value is listed as 30%; the “Loading capacity, active ingredients in %, Films with Kollicoat ® Smartseal + 8 mol partially neutralized” value is on record as 30%; the “Loading capacity, active ingredients in %, Films with Eudragit ® EPO” value is reported as less than 10%; the “Loading capacity, active ingredients in %, Films with Kollicoat ® Smartseal freeze-dried” value is listed as 20%.

On to `CC(C)Cc1ccc(C(C)C(=O)O)cc1` (stereo not drawn) [Ibuprofen 50, Ibuprofen], for which, in data set [1], the “Loading capacity, active ingredients in %, Films with Kollicoat ® Smartseal + 6 mol partially neutralized” value was found to be 30% and the “Loading capacity, active ingredients in %, Films with Kollicoat ® Smartseal + 8 mol partially neutralized” value was 30%.

As to `C#C[C@]1(O)CC[C@H]2[C@@H]3CCC4=Cc5oncc5C[C@]4(C)[C@H]3CC[C@@]21C` [Danazol], in data set [1], the “Loading capacity, active ingredients in %, Films with Kollicoat ® Smartseal + 6 mol partially neutralized” value is on record as 50%; the “Loading capacity, active ingredients in %, Films with Kollicoat ® Smartseal + 8 mol partially neutralized” value was determined as 50%; the “Loading capacity, active ingredients in %, Films with Eudragit ® EPO” value is less than 10%; the “Loading capacity, active ingredients in %, Films with Kollicoat ® Smartseal freeze-dried” value is reported as 50%.

Take `Clc1ccccc1C(c1ccccc1)(c1ccccc1)n1ccnc1` [Clotrimazole]: in data set [1], the “Loading capacity, active ingredients in %, Films with Kollicoat ® Smartseal + 6 mol partially neutralized” value was 35%; the “Loading capacity, active ingredients in %, Films with Kollicoat ® Smartseal + 8 mol partially neutralized” value was determined as 35%; the “Loading capacity, active ingredients in %, Films with Eudragit ® EPO” value is listed as 20%; the “Loading capacity, active ingredients in %, Films with Kollicoat ® Smartseal freeze-dried” value is given as 35%.

The values are drawn from patent publication US10668156B2, “Active-ingredient-containing solid dispersions based on diethylaminoethyl methacrylate copolymers” (BASF SE, priority 2012, dated 2020).
